Measured values taken from the supplement of paper PMC10307832.

Key:
Assay in all cases: relative viability (nuclei count vs DMSO), 5 days (fraction); higher = more cells survive
[1] = compound: COCC[n+]1c2c(n(Cc3cnccn3)c1C)C(=O)c1ccccc1C2=O [YM155] + COc1cc2c(Oc3ccc(NC(=O)C4(C(=O)Nc5ccc(F)cc5)CC4)cc3F)ccnc2cc1OCCCN1CCOCC1 [Foretinib] (partner 0.25 µM)
Outline: (§1)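 One day after seeding in 1536-well plates, lung cancer cell lines were dosed by pin tool. Dosing was either single-drug or a fixed anchor-drug dose plus five library-drug doses (not always all listed) in √10 steps. After 5 days, nuclei were stained in one fix-and-stain step and counted on 4× images, and relative viability is the nuclei count of treated wells over that of vehicle wells, given as the median of duplicate plates.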

[2] = compound: CC(C)(C)c1cc(NC(=O)Nc2ccc(-c3cn4c(n3)sc3cc(OCCN5CCOCC5)ccc34)cc2)no1 [Quizartinib] + NC(=O)Nc1cc(-c2cccc(F)c2)sc1C(=O)N[C@H]1CCCNC1 [AZD7762] (partner 0.2 µM)
Outline: as §1

[3] = compound: COCC[n+]1c2c(n(Cc3cnccn3)c1C)C(=O)c1ccccc1C2=O [YM155] + C[C@@H](Oc1cc(-c2cnn(C3CCNCC3)c2)cnc1N)c1c(Cl)ccc(F)c1Cl [Crizotinib] (partner 1 µM)
Outline: as §1

[4] = compound: CC(C)(C)c1cc(NC(=O)Nc2ccc(-c3cn4c(n3)sc3cc(OCCN5CCOCC5)ccc34)cc2)no1 [Quizartinib] + O=C(c1cc(Cc2n[nH]c(=O)c3ccccc23)ccc1F)N1CCN(C(=O)C2CC2)CC1 [Olaparib] (partner 8 µM)
Outline: as §1

| Cell Line | relative viability ([1]; first compound 0.002 µM) | relative viability ([1]; first compound 0.006325 µM) | relative viability ([1]; first compound 0.02 µM) | relative viability ([1]; first compound 0.06325 µM) | relative viability ([2]; first compound 0.001 µM) | relative viability ([2]; first compound 0.003162 µM) | relative viability ([2]; first compound 0.01 µM) | relative viability ([2]; first compound 0.03162 µM) | relative viability ([2]; first compound 0.1 µM) | relative viability ([3]; first compound 0.002 µM) | relative viability ([3]; first compound 0.006325 µM) | relative viability ([3]; first compound 0.02 µM) | relative viability ([3]; first compound 0.06325 µM) | relative viability ([4]; first compound 0.001 µM) | relative viability ([4]; first compound 0.003162 µM) | relative viability ([4]; first compound 0.01 µM) | relative viability ([4]; first compound 0.03162 µM) | relative viability ([4]; first compound 0.1 µM) |
| --- | --- | --- | --- | --- | --- | --- | --- | --- | --- | --- | --- | --- | --- | --- | --- | --- | --- | --- |
| NCI-H1755 | 0.853 | 0.934 | 0.884 | 0.976 | 0.486 | 0.392 | 0.489 | 0.526 | 0.434 | 0.882 | 0.833 | 0.973 | 0.859 | 0.832 | 0.809 | 0.946 | 0.948 | 0.855 |
| NCI-H1915 | 1.05 | 1.08 | 1.08 | 0.963 | 0.683 | 0.613 | 0.646 | 0.694 | 0.721 | 0.898 | 0.916 | 0.922 | 0.849 | 0.257 | 0.263 | 0.287 | 0.261 | 0.253 |
| NCI-H1944 | 0.818 | 0.888 | 0.852 | 0.91 | 0.493 | 0.414 | 0.48 | 0.57 | 0.527 | 1.07 | 0.916 | 1.2 | 1.27 | 0.442 | 0.374 | 0.396 | 0.425 | 0.385 |
| NCI-H1975 | 0.978 | 0.907 | 0.933 | 0.308 | 0.729 | 0.721 | 0.743 | 0.587 | 0.651 | 0.941 | 1.03 | 0.995 | 0.633 | 0.813 | 0.77 | 0.87 | 0.784 | 0.791 |
| NCI-H1993 | 0.659 | 0.709 | 0.811 | 0.64 | 0.759 | 0.699 | 0.87 | 0.672 | 0.914 | 1.01 | 0.825 | 0.703 | 0.552 | 0.968 | 1.24 | 1.07 | 1.14 | 1.07 |
| NCI-H2085 | 0.887 | 0.922 | 0.915 | 0.629 | 0.861 | 0.9 | 1.04 | 0.87 | 0.596 | 0.698 | 0.767 | 0.77 | 0.477 | 0.707 | 0.748 | 0.789 | 0.7 | 0.72 |
| NCI-H2087 | 1.17 | 0.968 | 1.07 | 0.869 | 1.13 | 1.15 | 1.26 | 1.38 | 1.3 | 0.914 | 0.71 | 0.883 | 0.648 | 0.654 | 0.578 | 0.619 | 0.587 | 0.583 |
| NCI-H2126 | 0.893 | 1.07 | 1.25 | 1.29 | 1.03 | 0.923 | 0.982 | 0.954 | 1.01 | 0.988 | 0.967 | 1.07 | 1.04 | 0.914 | 0.915 | 0.896 | 0.984 | 0.882 |
| NCI-H2170 | 1 | 0.983 | 1 | 1.09 | 0.906 | 0.848 | 0.914 | 0.973 | 1.03 | 1.13 | 1.18 | 1.24 | 1.18 | 0.567 | 0.681 | 0.656 | 0.584 | 0.54 |
